Key:
[1] = system: patients with persistent atrial fibrillation; experiment: Clinical phase II study: safety; type: in vivo, human; details: oral once daily 4, 12 or 24 mg, three months
Experimental: (§1) In a clinical phase II study 119 patients with persistent atrial fibrillation were investigated with regard to the effect of treatment with Compound-02 (structure of general formula (VI)). The patients were divided into a placebo group and three treatment groups with different dosing of Compound-02. The low, medium and high dosing groups received an oral once daily dosing of 4 mg, 12 mg or 24 mg of Compound-02, respectively.
(§2) The study participants received an implantable cardiac monitor (ICM) at least one week prior to start of treatment with Compound-02. The treatment with Compound-02 was maintained for a total period of three months (i.e. Day 1 to Day 99) and started at least 1 week prior to direct current cardioversion (DCC) (see FIG. 1 for details of study protocol).

IL-6 [2] = experiment: Clinical phase II study: IL-6 plasma concentration; type: in vivo, human
Experimental: as §1, §2
(§3) Plasma samples were taken from the patients at different study visits. Biomarkers were analyzed at baseline (V3) and at the end of treatment (V8). For 119 study participants complete sets of biomarkers could be obtained.

GDF-15 = experiment: Clinical phase II study: GDF-15 plasma concentration (sandwich ELISA); type: in vivo, human; details: baseline to end-of-treatment (3 months); dose-dependent
Experimental: as §1, §2, §3
GDF-15 concentrations were measured in EDTA treated plasma samples with a solid phase sandwich ELISA (Human GDF-15 Quantikine ELISA kit, R&D Systems) using an immobilized mouse monoclonal anti-GDF-15 and a horseradish peroxidase-conjugated monoclonal anti-GDF-15 antibody. […] The reaction product is measured spectrophotometrically at 450 nm (Sunrise Absorbance Reader, TECAN).

PTX-3 = experiment: Clinical phase II study: PTX-3 plasma concentration; type: in vivo, human; details: baseline to end-of-treatment (3 months); dose-dependent
Experimental: as §1, §2, §3

IL-6 [3] = details: CANTOS study, 4833 CAD patients; cited from earlier work
[4] = system: patients suffering from CAD; details: CANTOS study patients with reduced circulating IL-6 levels; cited from earlier work

Row | Compound | changes in the ECG or other types of arrhythmias [1] | safety profile [1] | reduction of IL-6 plasma concentration vs. placebo (IL-6 [2]; baseline to end-of-treatment (3 months), dose-dependent) [%] | reduction of IL-6 levels in response to treatment (IL-6 [2]; clinical study) | reduction of GDF-15 plasma concentration vs. placebo (GDF-15) [%] | reduction of PTX-3 plasma concentration vs. placebo (PTX-3) [%] | circulating IL-6 levels (IL-6 [3]) | reduction in major adverse cardiac events (MACE) compared to the placebo group [4] [%]
1 | CNC(=O)C(=O)NCCCC/C=C\CCCCCCCOCC(=O)O [Compound-02] | no changes | good safety profile | 30 | 25-40% | 30 | 55 | – | –
2 | Canakinumab: anti-IL-1β antibody that modulates the IL-6 pathway | – | – | – | – | – | – | reduces circulating IL-6 levels | 32
